Test results taken from PubChem BioAssay (NCI).
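Step 1: Grow cells in 96-well plates. Step 2: Expose to compound for 48 hours at 5 concentrations. Step 3: Interpolate endpoints linearly; if unreached, use highest concentration. At the GI50, growth is halved. At the TGI there is no net growth.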

How the values were obtained:
Assay in all cases: DTP human tumour cell line panel, 48 h
[1] = tested on: 786-0 renal
[2] = tested on: A498 renal
[3] = tested on: ACHN renal
[4] = tested on: BT-549 breast
[5] = tested on: CAKI-1 renal
[6] = tested on: CCRF-CEM leukemia
[7] = tested on: DU-145 prostate
[8] = tested on: HCC-2998 colon
[9] = tested on: HL-60(TB) leukemia
[10] = tested on: HOP-62 NSCLC
[11] = tested on: HOP-92 NSCLC
[12] = tested on: K-562 leukemia
[13] = tested on: MALME-3M melanoma
[14] = tested on: MOLT-4 leukemia
[15] = tested on: NCI-H226 lung
[16] = tested on: OVCAR-3 ovarian
[17] = tested on: OVCAR-4 ovarian
[18] = tested on: OVCAR-5 ovarian
[19] = tested on: OVCAR-8 ovarian
[20] = tested on: PC-3 prostate
[21] = tested on: RXF 393 renal
[22] = tested on: SF-268 CNS
[23] = tested on: SF-295 CNS
[24] = tested on: SK-MEL-2 melanoma
[25] = tested on: SK-MEL-28 melanoma
[26] = tested on: SK-MEL-5 melanoma
[27] = tested on: SK-OV-3 ovarian
[28] = tested on: SN12C renal
[29] = tested on: SNB-19 CNS
[30] = tested on: SNB-75 CNS
[31] = tested on: TK-10 renal
[32] = tested on: UACC-257 melanoma
[33] = tested on: UACC-62 melanoma
[34] = tested on: UO-31 renal

c1coc(-c2c3ccc(=[N+]4CCCCC4)cc-3oc3cc(N4CCCCC4)ccc23)c1
GI50 [1]: 0.0455 µM | TGI [1]: 0.424 µM | GI50 [2]: 0.0784 µM | TGI [2]: 0.568 µM | GI50 [3]: 0.0327 µM | TGI [3]: 0.12 µM | GI50 [4]: 0.191 µM | TGI [4]: 0.865 µM | GI50 [5]: 0.0313 µM | TGI [5]: 0.105 µM | GI50 [6]: 0.0306 µM | TGI [6]: 1.11 µM | GI50 [7]: 0.088 µM | TGI [7]: 0.475 µM | GI50 [8]: 0.0751 µM | TGI [8]: 0.331 µM | GI50 [9]: 0.0921 µM | TGI [9]: 0.468 µM | GI50 [10]: 0.0905 µM | TGI [10]: 0.435 µM | GI50 [11]: 0.0502 µM | TGI [11]: 0.19 µM | GI50 [12]: 0.0541 µM | TGI [12]: > 100 µM | GI50 [13]: 0.0423 µM | TGI [13]: 0.184 µM | GI50 [14]: 0.0463 µM | TGI [14]: 0.903 µM | GI50 [15]: 0.138 µM | TGI [15]: 1.87 µM | GI50 [16]: 0.033 µM | TGI [16]: 0.126 µM | GI50 [17]: 0.0707 µM | TGI [17]: 0.883 µM | GI50 [18]: 0.0946 µM | TGI [18]: 1.12 µM | GI50 [19]: 0.0449 µM | TGI [19]: 1.1 µM | GI50 [20]: 0.0702 µM | TGI [20]: 1.06 µM | GI50 [21]: 0.0437 µM | TGI [21]: 0.228 µM | GI50 [22]: 0.0667 µM | TGI [22]: 0.472 µM | GI50 [23]: 0.0937 µM | TGI [23]: 0.417 µM | GI50 [24]: 0.119 µM | TGI [24]: 1.09 µM | GI50 [25]: 0.114 µM | TGI [25]: 0.854 µM | GI50 [26]: 0.177 µM | TGI [26]: 0.471 µM | GI50 [27]: 0.246 µM | TGI [27]: 0.819 µM | GI50 [28]: 0.0591 µM | TGI [28]: 0.278 µM | GI50 [29]: 0.195 µM | TGI [29]: 1.56 µM | GI50 [30]: 0.0903 µM | TGI [30]: 0.588 µM | GI50 [31]: 0.036 µM | TGI [31]: 0.382 µM | GI50 [32]: 0.0432 µM | TGI [32]: 0.191 µM | GI50 [33]: 0.102 µM | TGI [33]: 1.09 µM | GI50 [34]: 0.0353 µM | TGI [34]: 0.336 µM
